# Results reported in patent US11459327B1, “Cycloalkyl and hetero-cycloalkyl inhibitors, preparation methods therefor, and use thereof” (Suzhou Zelgen Biopharmaceuticals Co., Ltd., priority 2019, dated 2022).
# pIC50: −log10 of the molar value.
# Key:
# [1] = system: NCI-H358(KRAS^G12C mutation) cells; test: Cell assay of antiproliferative activity (Celltiter-Glo, 5 days) against NCI-H358 cells; format: cell-based; conditions: 5 days incubation
# How it was run: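 Cells plated overnight, then given a 10-point compound series (stock dilutions 50 μM to 0.003 μM, 100 nL added per well) and grown 5 days. Luminescence read after 10 min shaking at room temperature. IC50 from curve fitting.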
# MIA PaCa-2 tumor cells = conditions: MIA PaCa-2 CDX, nude rats
# Protocol: Pharmacodynamic Testing Evaluation of Anti-Tumor Activity (MIA PaCa-2 CDX Tumor Model)
# 100 uL suspension containing 5×10^6 MIA PaCa-2 tumor cells was subcutaneously injected into the right posterior abdomen of nude rats. The health of the rat was monitored daily. Measurements were started when the tumor grew palpable. The tumor volume calculation formula was adopted: 0.5×L×W^2, where L and W represent tumor length and width, respectively. The tumor grew to ˜200 mm^3, the rats were randomly divided into groups. Rats were intragastrically administrated the corresponding dose (7.5 mg/Kg) of the compound's CMC-Na suspension every day, and their general status was monitored at the same time. The tumor was measured 3 times a week, and the weight was measured twice a week.
# NCI-H358 tumor cells = test: Pharmacodynamic testing evaluation of anti-tumor activity (H358 CDX tumor model); format: in vivo; conditions: nude rats
# Protocol: Pharmacodynamic Testing Evaluation of Anti-Tumor Activity (11358 CDX Tumor Model)
# 100 uL suspension containing 5×10^6 NCI-H358 tumor cells was subcutaneously injected into the right posterior back of nude rats. The health of the rat was monitored daily. Measurements were started when the tumor grew palpable.
# [2] = 7.5 mg/Kg intragastrically every day, Day 20
# [3] = 30 mg/Kg intragastrically every day, Day 20
structure (smiles),measurement,setting,value
C=C(F)C(=O)N1CCN(c2nc(OCC3(CN(C)C)CC3)nc3c2CCN(c2cccc4cccc(Cl)c24)C3)C[C@@H]1CC#N [Example 27],pIC50,[1],7.85
same,% TGI,MIA PaCa-2 tumor cells; [2],66.6%
same,% Tumor Growth,MIA PaCa-2 tumor cells; [2],145.4%
same,TV Day 0,"MIA PaCa-2 tumor cells; Day 0 (at grouping), 7.5 mg/Kg intragastrically every day",197 mm^3
same,TV Day 20,"MIA PaCa-2 tumor cells; Day 20, 7.5 mg/Kg intragastrically every day",518 mm^3
same,% TGI,NCI-H358 tumor cells; [3],89.8%
same,% Tumor Growth,NCI-H358 tumor cells; [3],182%
same,TV Day 0,"NCI-H358 tumor cells; Day 0 (at grouping), 30 mg/Kg intragastrically every day",209 mm^3
same,TV Day 20,"NCI-H358 tumor cells; Day 20, 30 mg/Kg intragastrically every day",471 mm^3
